Assay results as given in patent US20160115540A1, “PRODRUGS AND DRUGS” (Biogen MA Inc., priority 2013, published 2016).
Counter-ions that a name gives are not always drawn.

Test system: kidney
Assay: Transcriptional profiling on Affymetrix GeneChips, single dose, naïve mice: kidney
Format: in vivo, C57BL/6 mice
Settings: 100MMF-vs-Veh
Method: Treated mice were sacrificed at 2, 7, or 12 hours. Tissues (liver, spleen, kidney, jejunum, cortex, hippocampus, striatum and whole blood) were collected and analyzed by transcriptional profiling on mouse Affymetrix GeneChips.
Tissues (liver, spleen, kidney, jejunum, cortex, hippocampus, striatum and whole blood) were collected and analyzed by transcriptional profiling on mouse Affymetrix GeneChips.
Animals were exposed to CO2 and whole blood collected via cardiac puncture. Two 100 μl aliquots of whole blood were collected in 1.5 mL microcentrifuge tubes and snap frozen in liquid nitrogen. Peripheral (liver, spleen, kidney and jejunum) and CNS brain (cerebellum, hippocampus, striatum and cortex) tissues were harvested and snap frozen in liquid nitrogen, with special care taken to collect tissues of similar size and from the same location. All samples were stored at −80° C. until RNA extraction was conducted.
For RNA preparation, frozen tissues were placed in 2 mL RNAse-free 96-well blocks with 1.5 mL QIAzol Lysis Reagent (QIAgen) and a 3.2 mm stainless steel bead (BioSpec Products, Bartlesville, Okla.). Tissues were disrupted for four cycles of 45 seconds in a Mini-Beadbeater (Biospec Products). RNA was extracted in chloroform and the aqueous phase was mixed with an equal volume of 70% ethanol. Extracted RNA was applied to RNeasy 96 plates and purified by the spin method according to the manufacturer's protocol (RNeasy 96 Universal Tissue Protocol, QIAgen, Hilden Germany).
Automated sample amplifications and biotin labelings were carried out using the NuGEN Ovation RNA Amplification system V2 (Cat #3100), Ovation WB reagent (Cat #1300) and Encore Biotin module (Cat #4200) (NuGEN Technologies, Inc, San Carlos, Calif.) according to manufacturer's recommendations using an Arrayplex automated liquid handler (Beckman Coulter, Indianapolis, Ind.). Two micrograms of biotin labeled sscDNA probe were hybridized to Affymetrix GeneChip Affymetrix HT_MG-430_PM plate arrays with modified conditions as described in Allaire et al. Washing and staining of the hybridized arrays were completed as described in the GeneChip Expression analysis technical manual for HT plate arrays using the Genechip® Array Station (Affymetrix, Santa Clara, Calif.) with modifications as described in Allaire et al. The processed GeneChip® plate arrays were scanned using GeneTitan scanner (Affymetrix, Santa Clara, Calif.).
Affymetrix scans were subject to quality control (QC) measures. These tests included a visual inspection of the distribution of raw signal intensities and an assessment of RNA degradation, relative log expression (RLE), and normalized unsealed standard error (NUSE). All sample scans that passed these QC metrics were included in the analysis.
All CEL files were subjected to GC-content-based Robust Multi-array Average (GCRMA) normalization (version 2.20.0) (Irizarry R A, et al. Nucleic Acids Res 2003; 31:e15; Li C, et al. Genome Biol 2001; 2:[…]0032). Expression levels were log (base 2) transformed.
All calculations and analyses were carried out using R (version 2.11.1) and Bioconductor computational tools (Gentleman R. Springer Science+Business Media 2005).

With `COC(=O)/C=C/C(=O)O` [MMF, monomethyl fumarate] the “FC Gsr (1421816_PM_at)” value (7 h) was 1.83, the “FC Gsta3 (1423436_PM_at)” value (7 h) was 1.99 and the “FC Gsta3 (1423437_PM_at)” value (7 h) was 2.95. The “FC Gsta4 1416368_PM_at” value (7 h) was 1.85, the “FC Havcr1 1434716_PM_at” value (7 h) was 3.22 and the “FC Hfe 1450702_PM_at” value (7 h) was 1.57. For the same compound, the “FC Hist1h2be 1440330_PM_at” value (7 h) was 1.98, the “FC Hist2h3c1 1442051_PM_at” value (7 h) was 1.65 and the “FC Hmox1 1448239_PM_at” value (7 h) was 7.48. The “FC Hsp90aa1 1426645_PM_at” value (7 h) was 1.50, the “FC Ido2 1425778_PM_at” value (7 h) was −1.52 and the “FC Ikbkg 1421209_PM_s_at” value (7 h) was 1.77. For the same compound, the “FC Ikbkg 1435646_PM_at” value (7 h) was 1.80, the “FC Ikbkg 1454690_PM_at” value (7 h) was 1.61 and the “FC Il18 1417932_PM_at” value (7 h) was −1.52. The “FC Kif20b 1439695_PM_a_at” value (7 h) was −2.61, the “FC Lcp1 1415983_PM_at” value (7 h) was 1.59 and the “FC Lcp1 1448160_PM_at” value (7 h) was 1.56. The “FC Lpar2 1442291_PM_at” value (7 h) was 1.84, the “FC Lrp8 (1440882_PM_at)” value (7 h) was 2.19 and the “FC Mctp2 1457707_PM_at” value (7 h) was 1.54. The “FC Mfsd2a 1428223_PM_at” value (7 h) was −3.38, the “FC Mt1 1422557_PM_s_at” value (7 h) was 1.89 and the “FC Mt2 1428942_PM_at” value (7 h) was 2.71. For the same compound, the “FC Mthfd2 1419253_PM_at” value (7 h) was 1.89, the “FC Mthfd2 1419254_PM_at” value (7 h) was 1.68 and the “FC Napsa 1430744_PM_at” value (7 h) was −1.79. For the same compound, the “FC Ndrg1 1423413_PM_at” value (7 h) was 1.52, the “FC Ndrg1 1450977_PM_s_at” value (7 h) was 1.54 and the “FC Nmral1 1430530_PM_s_at” value (7 h) was −1.52. For the same compound, the “FC Nqo1 (1423627_PM_at)” value (7 h) was 1.96, the “FC Nrg1 1456524_PM_at” value (7 h) was 1.81 and the “FC Nudt11 1426887_PM_at” value (7 h) was 1.62. The “FC Pank1 1457110_PM_at” value (7 h) was −1.79, the “FC Pank2 1452733_PM_at” value (7 h) was −1.94 and the “FC Pard3 1434775_PM_at” value (7 h) was 1.53. For the same compound, the “FC Pfkfb4 1456888_PM_at” value (7 h) was 1.69, the “FC Pgd 1423706_PM_a_at” value (7 h) was 2.21 and the “FC Pgd 1438627_PM_x_at” value (7 h) was 1.78. For the same compound, the “FC Pgd (1436771_PM_x_at)” value (7 h) was 1.87, the “FC Pgd (1437380_PM_x_at)” value (7 h) was 1.87 and the “FC Pir (1429001_PM_at)” value (7 h) was 2.63. For the same compound, the “FC Ppm1e 1434990_PM_at” value (7 h) was −1.53, the “FC Rab38 1417700_PM_at” value (7 h) was −1.57 and the “FC Rassf6 1429262_PM_at” value (7 h) was 1.65. The “FC Rdh10 1460632_PM_at” value (7 h) was 1.68, the “FC Rhof 1455902_PM_x_at” value (7 h) was 1.66 and the “FC Rnf24 1436101_PM_at” value (7 h) was −2.03. The “FC Rock2 1451041_PM_at” value (7 h) was 1.60, the “FC Rundc3b 1434456_PM_at” value (7 h) was 1.54 and the “FC Sema3c 1420696_PM_at” value (7 h) was 1.66. For the same compound, the “FC Slc7a1 1454992_PM_at” value (7 h) was 1.62, the “FC Slc9a8 1454865_PM_at” value (7 h) was −1.68 and the “FC Slc16a6 1417884_PM_at” value (7 h) was 1.55. For the same compound, the “FC Slc20a1 1448568_PM_a_at” value (7 h) was 1.70, the “FC Slc40a1 1448566_PM_at” value (7 h) was 1.51 and the “FC Slc48a1 1450410_PM_a_at” value (7 h) was 1.58. The “FC Smcp 1418358_PM_at” value (7 h) was −1.96, the “FC Sphk2 1426230_PM_at” value (7 h) was −1.54 and the “FC Sqstm1 1450957_PM_a_at” value (7 h) was 1.62. For the same compound, the “FC Srxn1 (1419942_PM_at)” value (7 h) was 2.45, the “FC Srxn1 (1425351_PM_at)” value (7 h) was 2.92 and the “FC Srxn1 (1426875_PM_s_at)” value (7 h) was 2.29. For the same compound, the “FC Srxn1 (1451680_PM_at)” value (7 h) was 2.68, the “FC Syn3 1435311_PM_s_at” value (7 h) was −1.68 and the “FC Tardbp 1423723_PM_s_at” value (7 h) was 1.62. The “FC Tcte2 1425009_PM_at” value (7 h) was −1.61, the “FC Tiam2 1423186_PM_at” value (7 h) was 2.27 and the “FC Tmem86a 1428758_PM_at” value (7 h) was −1.56. For the same compound, the “FC Tnfrsf12a 1418571_PM_at” value (7 h) was 2.40, the “FC Tnfrsf12a 1418572_PM_x_at” value (7 h) was 2.45 and the “FC Trim7 1425743_PM_at” value (7 h) was −1.59. The “FC Trim7 1439352_PM_at” value (7 h) was −1.55, the “FC Tubb2a 1427347_PM_s_at” value (7 h) was 1.52 and the “FC Txnrd1 1421529_PM_a_at” value (7 h) was 1.72. For the same compound, the “FC Txnrd1 (1424486_PM_a_at)” value (7 h) was 3.08, the “FC Txnrd1 (1424487_PM_x_at)” value (7 h) was 2.37 and the “FC Upp2 1424969_PM_s_at” value (7 h) was −3.63. The “FC Upp2 1451548_PM_at” value (7 h) was −4.00, the “FC Uxs1 1426275_PM_a_at” value (7 h) was 1.50 and the “FC Vwa1 1426399_PM_at” value (7 h) was −1.69. For the same compound, the “FC Wdr90 1426767_PM_at” value (7 h) was −1.58, the “FC Wnt5a 1436791_PM_at” value (7 h) was 1.69 and the “FC Wnt5a 1448818_PM_at” value (7 h) was 1.81. The “FC Acot1 /// Acot2 1422997_PM_s_at” value (12 h) was 1.51, the “FC Aldh1a1 1416468_PM_at” value (12 h) was 2.21 and the “FC Aldh1a7 (1418601_PM_at)” value (12 h) was 3.02. For the same compound, the “FC Aox1 (1419435_PM_at)” value (12 h) was 2.23, the “FC Arg2 1418847_PM_at” value (12 h) was 2.70 and the “FC Atp11a 1421167_PM_at” value (12 h) was −1.62. The “FC C1qtnf3 1422606_PM_at” value (12 h) was −1.57, the “FC Cyp51 1422533_PM_at” value (12 h) was −1.95 and the “FC Cyp51 1422534_PM_at” value (12 h) was −1.79. For the same compound, the “FC Egln3 1418649_PM_at” value (12 h) was 1.71, the “FC G6pd2 /// G6pdx 1422327_PM_s_at” value (12 h) was 1.91 and the “FC Gbe1 1420654_PM_a_at” value (12 h) was 1.51. For the same compound, the “FC Gdf15 1418949_PM_at” value (12 h) was 2.01, the “FC Gm3776 /// Gsta1 /// Gsta2 1421041_PM_s_at” value (12 h) was 1.68 and the “FC Gpr19 1421756_PM_a_at” value (12 h) was 1.50. The “FC Gsta2 (1421040_PM_a_at)” value (12 h) was 1.61, the “FC Gsta3 (1423436_PM_at)” value (12 h) was 1.95 and the “FC Gsta3 (1423437_PM_at)” value (12 h) was 2.85. For the same compound, the “FC Gsta4 1416368_PM_at” value (12 h) was 1.95.
